Several values for one entry are separate records, joined by “and”; a condition that tells them apart may be missing. Identical values can stand only once. Like-named read-outs stand apart in the source and are kept apart here.
What was measured:
PfcProRS = molecular target: T1, PfcProRS (Plasmodium falciparum, UniProt Q8I5R7); type: binding; settings: single replicates
T1 construct: made in house; host or cells: E. coli SoluBL-21

HsProRS = HsProRS (Homo sapiens, UniProt P07814); experiment: TR-FRET ligand displacement assay with tracer MAT379 (CoraFluor-1-Halo and anti-His6 antibody formats); type: binding; set-up: made in house; host or cells: E. coli SoluBL-21; settings: for TR-FRET dose-response, normalized signal (SI Fig 11): individual replicates
Chain of HsProRS (P07814 996-1512): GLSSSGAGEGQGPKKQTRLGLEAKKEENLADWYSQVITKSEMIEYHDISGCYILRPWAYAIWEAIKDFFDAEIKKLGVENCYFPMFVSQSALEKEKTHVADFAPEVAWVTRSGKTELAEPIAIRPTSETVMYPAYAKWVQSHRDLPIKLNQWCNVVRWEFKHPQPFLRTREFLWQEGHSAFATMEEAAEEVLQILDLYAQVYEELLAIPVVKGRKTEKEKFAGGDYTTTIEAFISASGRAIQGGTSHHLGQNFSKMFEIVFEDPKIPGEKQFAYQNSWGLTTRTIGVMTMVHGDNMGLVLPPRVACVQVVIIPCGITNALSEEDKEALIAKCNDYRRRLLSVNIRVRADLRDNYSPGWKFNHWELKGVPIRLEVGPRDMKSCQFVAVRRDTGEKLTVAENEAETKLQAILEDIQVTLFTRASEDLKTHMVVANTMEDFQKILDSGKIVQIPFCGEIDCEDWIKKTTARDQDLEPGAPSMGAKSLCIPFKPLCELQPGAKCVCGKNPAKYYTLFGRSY

T1 sequence (Q8I5R7 249-746): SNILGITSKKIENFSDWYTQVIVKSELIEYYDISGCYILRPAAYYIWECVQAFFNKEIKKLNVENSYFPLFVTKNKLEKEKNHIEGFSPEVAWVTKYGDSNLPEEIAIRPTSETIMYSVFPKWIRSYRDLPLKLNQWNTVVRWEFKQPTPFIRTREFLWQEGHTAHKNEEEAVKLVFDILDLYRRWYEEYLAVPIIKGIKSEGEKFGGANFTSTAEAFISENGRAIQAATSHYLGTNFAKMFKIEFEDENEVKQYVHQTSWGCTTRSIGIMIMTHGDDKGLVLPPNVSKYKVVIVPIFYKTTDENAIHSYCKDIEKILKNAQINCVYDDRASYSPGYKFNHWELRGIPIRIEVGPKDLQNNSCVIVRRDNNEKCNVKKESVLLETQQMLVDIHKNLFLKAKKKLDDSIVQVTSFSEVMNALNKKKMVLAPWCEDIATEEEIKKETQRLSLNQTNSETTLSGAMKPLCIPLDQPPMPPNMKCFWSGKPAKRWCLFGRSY

NC1CCN(C(=O)Nc2nccnc2C(=O)NC2Cc3ccccc3C2)CC1 [compound 8]
dose-response signal (normalized), SI Fig 8 (PfcProRS; Log[inhibitor] (M) -5.000): 9.61E-01 and 8.92E-01 and 8.44E-01 | dose-response signal (normalized), SI Fig 8 (PfcProRS; Log[inhibitor] (M) -5.301): 8.74E-01 and 9.88E-01 and 9.73E-01 | dose-response signal (normalized), SI Fig 8 (PfcProRS; Log[inhibitor] (M) -5.601): 9.98E-01 and 1.02E+00 and 1.04E+00 | dose-response signal (normalized), SI Fig 8 (PfcProRS; Log[inhibitor] (M) -5.904): 1.08E+00 and 1.04E+00 (2×) | dose-response signal (normalized), SI Fig 8 (PfcProRS; Log[inhibitor] (M) -6.208): 1.22E+00 and 1.03E+00 and 1.05E+00 | dose-response signal (normalized), SI Fig 8 (PfcProRS; Log[inhibitor] (M) -6.509): 1.14E+00 and 1.03E+00 and 1.04E+00 | dose-response signal (normalized), SI Fig 8 (PfcProRS; Log[inhibitor] (M) -6.796): 1.01E+00 and 1.02E+00 and 1.08E+00 | dose-response signal (normalized), SI Fig 8 (PfcProRS; Log[inhibitor] (M) -7.108): 9.50E-01 and 9.64E-01 and 1.00E+00 | dose-response signal (normalized), SI Fig 8 (PfcProRS; Log[inhibitor] (M) -7.409): 1.03E+00 and 1.01E+00 and 1.12E+00 | dose-response signal (normalized), SI Fig 8 (PfcProRS; Log[inhibitor] (M) -7.710): 1.12E+00 and 1.00E+00 and 9.44E-01 | dose-response signal (normalized), SI Fig 8 (PfcProRS; Log[inhibitor] (M) -8.000): 1.00E+00 and 9.85E-01 and 1.03E+00 | dose-response signal (normalized), SI Fig 8 (PfcProRS; Log[inhibitor] (M) -8.301): 1.00E+00 and 9.83E-01 and 1.01E+00 | dose-response signal (normalized), SI Fig 8 (PfcProRS; Log[inhibitor] (M) -8.602): 1.04E+00 (2×) and 1.03E+00 | dose-response signal (normalized), SI Fig 8 (PfcProRS; Log[inhibitor] (M) -9.000): 9.59E-01 and 1.02E+00 and 1.11E+00 | dose-response signal (normalized), SI Fig 8 (PfcProRS; Log[inhibitor] (M) -9.301): 9.77E-01 and 1.08E+00 and 1.13E+00 | IC50 (HsProRS): > 10 µM | HsProRS % signal at 10 μM, + 100 μM proline (HsProRS; + 100 μM proline, 10 μM): 64.1% | normalized TR-FRET ligand displacement signal, dose-response replicates (SI Fig 6) (HsProRS; Log[inhibitor] (M) -5.000): 7.72E-01 and 8.67E-01 and 9.20E-01 | TR-FRET dose-response, normalized signal (SI Fig 11) (HsProRS; Log[inhibitor] (M) -5.000): 7.80E-01 and 8.21E-01 and 8.27E-01 | normalized TR-FRET ligand displacement signal, dose-response replicates (SI Fig 6) (HsProRS; Log[inhibitor] (M) -5.301): 9.51E-01 and 8.63E-01 and 8.95E-01 | TR-FRET dose-response, normalized signal (SI Fig 11) (HsProRS; Log[inhibitor] (M) -5.301): 9.22E-01 and 8.53E-01 and 9.03E-01 | normalized TR-FRET ligand displacement signal, dose-response replicates (SI Fig 6) (HsProRS; Log[inhibitor] (M) -5.601): 9.39E-01 and 9.19E-01 and 9.88E-01 | TR-FRET dose-response, normalized signal (SI Fig 11) (HsProRS; Log[inhibitor] (M) -5.601): 8.79E-01 and 9.90E-01 and 8.75E-01 | normalized TR-FRET ligand displacement signal, dose-response replicates (SI Fig 6) (HsProRS; Log[inhibitor] (M) -5.904): 9.40E-01 and 9.19E-01 and 1.05E+00 | TR-FRET dose-response, normalized signal (SI Fig 11) (HsProRS; Log[inhibitor] (M) -5.904): 9.88E-01 and 9.41E-01 and 9.72E-01 | normalized TR-FRET ligand displacement signal, dose-response replicates (SI Fig 6) (HsProRS; Log[inhibitor] (M) -6.208): 8.89E-01 and 1.04E+00 and 1.05E+00 | TR-FRET dose-response, normalized signal (SI Fig 11) (HsProRS; Log[inhibitor] (M) -6.208): 9.38E-01 (2×) and 9.73E-01 | normalized TR-FRET ligand displacement signal, dose-response replicates (SI Fig 6) (HsProRS; Log[inhibitor] (M) -6.509): 1.02E+00 and 9.90E-01 and 9.84E-01 | TR-FRET dose-response, normalized signal (SI Fig 11) (HsProRS; Log[inhibitor] (M) -6.509): 9.67E-01 and 9.58E-01 and 9.39E-01 | normalized TR-FRET ligand displacement signal, dose-response replicates (SI Fig 6) (HsProRS; Log[inhibitor] (M) -6.796): 1.02E+00 and 1.08E+00 and 1.11E+00 | TR-FRET dose-response, normalized signal (SI Fig 11) (HsProRS; Log[inhibitor] (M) -6.796): 9.44E-01 and 9.26E-01 and 9.45E-01 | normalized TR-FRET ligand displacement signal, dose-response replicates (SI Fig 6) (HsProRS; Log[inhibitor] (M) -7.108): 1.06E+00 and 1.03E+00 and 1.02E+00 | TR-FRET dose-response, normalized signal (SI Fig 11) (HsProRS; Log[inhibitor] (M) -7.108): 8.82E-01 and 8.87E-01 and 8.97E-01 | normalized TR-FRET ligand displacement signal, dose-response replicates (SI Fig 6) (HsProRS; Log[inhibitor] (M) -7.409): 1.03E+00 (2×) and 9.94E-01 | TR-FRET dose-response, normalized signal (SI Fig 11) (HsProRS; Log[inhibitor] (M) -7.409): 8.83E-01 and 9.01E-01 and 8.97E-01 | normalized TR-FRET ligand displacement signal, dose-response replicates (SI Fig 6) (HsProRS; Log[inhibitor] (M) -7.710): 9.60E-01 and 1.05E+00 and 1.02E+00 | TR-FRET dose-response, normalized signal (SI Fig 11) (HsProRS; Log[inhibitor] (M) -7.710): 9.46E-01 and 8.63E-01 and 9.47E-01 | normalized TR-FRET ligand displacement signal, dose-response replicates (SI Fig 6) (HsProRS; Log[inhibitor] (M) -8.000): 8.80E-01 and 1.08E+00 and 9.66E-01 | TR-FRET dose-response, normalized signal (SI Fig 11) (HsProRS; Log[inhibitor] (M) -8.000): 9.68E-01 and 9.54E-01 and 9.46E-01 | normalized TR-FRET ligand displacement signal, dose-response replicates (SI Fig 6) (HsProRS; Log[inhibitor] (M) -8.301): 9.78E-01 and 9.63E-01 and 8.97E-01 | TR-FRET dose-response, normalized signal (SI Fig 11) (HsProRS; Log[inhibitor] (M) -8.301): 9.20E-01 and 9.17E-01 and 9.26E-01 | normalized TR-FRET ligand displacement signal, dose-response replicates (SI Fig 6) (HsProRS; Log[inhibitor] (M) -8.602): 9.99E-01 and 9.46E-01 and 8.78E-01 | TR-FRET dose-response, normalized signal (SI Fig 11) (HsProRS; Log[inhibitor] (M) -8.602): 9.38E-01 and 9.59E-01 and 9.18E-01 | normalized TR-FRET ligand displacement signal, dose-response replicates (SI Fig 6) (HsProRS; Log[inhibitor] (M) -9.000): 8.55E-01 and 9.99E-01 and 1.05E+00 | TR-FRET dose-response, normalized signal (SI Fig 11) (HsProRS; Log[inhibitor] (M) -9.000): 9.56E-01 and 9.64E-01 and 9.58E-01 | normalized TR-FRET ligand displacement signal, dose-response replicates (SI Fig 6) (HsProRS; Log[inhibitor] (M) -9.301): 1.04E+00 and 8.74E-01 and 1.01E+00 | TR-FRET dose-response, normalized signal (SI Fig 11) (HsProRS; Log[inhibitor] (M) -9.301): 9.54E-01 and 1.00E+00 (2×) | HsProRS % signal at 10 μM (HsProRS; no added proline/ATP (-), 10 μM): 81.0% | IC50 (HsProRS; read-out: HsProRS IC50 + 100 μM proline, + 100 μM proline): > 10 µM
